From ChEMBL document CHEMBL5550201, “Discovery of a Highly Potent, Selective and Efficacious USP7 Degrader for the Treatment of Acute Lymphoblastic Leukemia” (J Med Chem, 2024)
Calls of active or inactive are those of the source. No cut-off for these calls is given here.

Assays:
[1] = target: T1, von Hippel-Lindau disease tumor suppressor/Ubiquitin carboxyl-terminal hydrolase 7 (Homo sapiens, UniProt Q93009+P40337); assay: PROTACT activity at USP7/VHL in human RS4;11 cells assessed as protein degradation at 10 to 100 nM measured after 12 hrs by Western blot analysis; type: cell-based; conditions: dose 10-100 nM
T1 sequence (P40337 whole entry, looked up): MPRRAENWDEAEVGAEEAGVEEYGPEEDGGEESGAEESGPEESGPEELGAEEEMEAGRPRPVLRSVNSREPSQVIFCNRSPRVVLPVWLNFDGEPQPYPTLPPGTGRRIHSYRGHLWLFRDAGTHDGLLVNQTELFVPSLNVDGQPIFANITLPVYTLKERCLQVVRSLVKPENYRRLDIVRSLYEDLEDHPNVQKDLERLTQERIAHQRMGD
T1 sequence (Q93009 whole entry, looked up): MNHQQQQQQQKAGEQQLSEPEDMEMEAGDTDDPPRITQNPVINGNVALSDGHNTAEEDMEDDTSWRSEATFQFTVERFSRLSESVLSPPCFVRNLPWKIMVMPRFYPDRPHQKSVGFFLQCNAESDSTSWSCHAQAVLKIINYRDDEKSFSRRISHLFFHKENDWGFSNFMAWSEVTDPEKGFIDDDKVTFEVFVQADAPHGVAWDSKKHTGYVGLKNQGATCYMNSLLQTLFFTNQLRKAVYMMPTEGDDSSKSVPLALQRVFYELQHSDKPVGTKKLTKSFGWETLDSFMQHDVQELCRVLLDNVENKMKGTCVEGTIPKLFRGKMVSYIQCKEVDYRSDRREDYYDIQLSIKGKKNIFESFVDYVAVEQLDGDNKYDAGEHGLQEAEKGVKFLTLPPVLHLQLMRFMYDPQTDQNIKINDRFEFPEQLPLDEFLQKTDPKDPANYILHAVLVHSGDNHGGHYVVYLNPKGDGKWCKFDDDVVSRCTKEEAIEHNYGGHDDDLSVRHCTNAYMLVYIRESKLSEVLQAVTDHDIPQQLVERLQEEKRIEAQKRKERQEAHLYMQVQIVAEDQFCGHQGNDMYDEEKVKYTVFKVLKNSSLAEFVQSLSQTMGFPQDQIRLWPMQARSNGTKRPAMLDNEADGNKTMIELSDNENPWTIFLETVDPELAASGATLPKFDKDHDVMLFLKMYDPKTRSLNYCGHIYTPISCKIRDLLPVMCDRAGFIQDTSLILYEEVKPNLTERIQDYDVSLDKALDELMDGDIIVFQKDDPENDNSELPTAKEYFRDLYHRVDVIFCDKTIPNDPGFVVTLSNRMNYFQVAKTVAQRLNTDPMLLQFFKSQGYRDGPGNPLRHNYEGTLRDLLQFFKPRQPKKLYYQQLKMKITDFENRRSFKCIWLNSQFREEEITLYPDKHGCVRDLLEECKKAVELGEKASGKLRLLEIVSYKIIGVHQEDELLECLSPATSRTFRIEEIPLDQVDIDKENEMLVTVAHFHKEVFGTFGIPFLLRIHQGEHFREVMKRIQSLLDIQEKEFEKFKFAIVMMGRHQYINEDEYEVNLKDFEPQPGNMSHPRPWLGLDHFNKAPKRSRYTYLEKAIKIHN

[2] = target: T1, von Hippel-Lindau disease tumor suppressor/Ubiquitin carboxyl-terminal hydrolase 7; assay: PROTACT activity at USP7/VHL in human REH cells assessed as protein degradation at 10 to 100 nM measured after 12 hrs by Western blot analysis; type: cell-based; conditions: dose 10-100 nM
[3] = target: T1, von Hippel-Lindau disease tumor suppressor/Ubiquitin carboxyl-terminal hydrolase 7; assay: PROTACT activity at USP7/VHL in human RS4;11 cells assessed as selective USP7 degradation at 100 nM measured after 4 hrs by proteomics analysis; type: cell-based
RS4-11 [4] = assay: Induction of apoptosis in human RS4-11 cells assessed as viable cells at 1 nM measured after 72 hrs by FITC-annexin-V/PI analysis (reference value: 91.41%); type: functional; conditions: read-out: Activity
RS4-11 [5] = assay: Induction of apoptosis in human RS4-11 cells assessed as early apoptotic cells at 1 nM measured after 72 hrs by FITC-annexin-V/PI analysis (reference value: 5.36%); type: functional
RS4-11 [6] = assay: Induction of apoptosis in human RS4-11 cells assessed as late apoptotic cells at 100 nM measured after 72 hrs by FITC-annexin-V/PI analysis (reference value: 3.23%); type: functional
RS4-11 [7] = assay: Induction of apoptosis in human RS4-11 cells assessed as necrotic cells at 1000 nM measured after 72 hrs by FITC-annexin-V/PI analysis (reference value: 0%); type: functional
RS4-11 [8] = assay: Induction of cell cycle arrest in human RS4-11 cells assessed as assessed as total apoptotic cells at 1 nM measured after 12 hrs by flow cytometry relative to control; type: functional
RS4-11 [9] = assay: Antitumor activity against human RS4-11 cells xenografted in NOD/SCID mouse model assessed as tumor growth inhibition at 20 mg/kg, ip daily measured after 18 days relative to control; type: functional; conditions: RS4-11, 432 h, time 18 day, read-out: TGI
[10] = Toxicity in NOD/SCID mouse xenografted with human RS4-11 cells assessed as signs of toxicity at 5 to 20 mg/kg, ip daily measured after 18 days relative to control; type: organism-based; conditions: in vivo, 432 h, dose 5-20 mg/kg, time 18 day

## Cc1ncsc1-c1ccc([C@H](C)NC(=O)[C@@H]2C[C@@H](O)CN2C(=O)[C@@H](c2cc(N3CCN(Cc4ccc(-c5c6ncn(CC7(O)CCN(C(=O)C[C@@H](C)c8ccccc8)CC7)c(=O)c6nn5C)cc4)CC3)no2)C(C)C)cc1
[1]
  Activity: Active
[2]
  Activity: Active
[3]
  Activity: Active
RS4-11 [4]
  viability at 0.001 µM: 74.6%
RS4-11 [5]
  Activity: 12.45%
RS4-11 [6]
  Activity: 20.73%
RS4-11 [7]
  Activity: 0%
RS4-11 [8]
  Activity: 12.98%
RS4-11 [9]
  inhibition in vivo at 20 mg/kg: 78.7%
[10]
  Activity: Non-Toxic
